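A five-concentration, 48-hour dose response in 96-well plates underlies each endpoint, interpolated linearly between surrounding concentrations. The concentration for full growth arrest is given as TGI.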
Legend:
Assay in all cases: growth of human tumour cells (NCI), 48 h
[1] = test system: A498 renal
[2] = test system: HCT-116 colon
[3] = test system: SK-MEL-2 melanoma
[4] = test system: SF-539 CNS
[5] = test system: SN12C renal
[6] = test system: SW-620 colon
[7] = test system: SF-268 CNS
[8] = test system: UACC-62 melanoma
[9] = test system: SK-MEL-5 melanoma
[10] = test system: OVCAR-5 ovarian
[11] = test system: HS 578T breast
[12] = test system: CAKI-1 renal
[13] = test system: COLO 205 colon
[14] = test system: SF-295 CNS
[15] = test system: HT29 colon
[16] = test system: SR leukemia
[17] = test system: NCI-H226 lung
[18] = test system: PC-3 prostate
[19] = test system: M14 melanoma
[20] = test system: MDA-N
[21] = test system: SNB-19 CNS
[22] = test system: UACC-257 melanoma
[23] = test system: SNB-75 CNS
[24] = test system: NCI-H522 lung
[25] = test system: HOP-62 NSCLC
[26] = test system: HOP-92 NSCLC
[27] = test system: NCI/ADR-RES ovarian
[28] = test system: SK-OV-3 ovarian
[29] = test system: SK-MEL-28 melanoma
[30] = test system: MCF7 breast
[31] = test system: MDA-MB-435
[32] = test system: K-562 leukemia
[33] = test system: LOX IMVI melanoma
[34] = test system: OVCAR-8 ovarian
[35] = test system: ACHN renal
[36] = test system: RXF 393 renal
[37] = test system: NCI-H460 lung
[38] = test system: OVCAR-3 ovarian
[39] = test system: HCC-2998 colon
[40] = test system: HCT-15 colon
[41] = test system: UO-31 renal
[42] = test system: HL-60(TB) leukemia
[43] = test system: DU-145 prostate
[44] = test system: NCI-H23 lung
[45] = test system: CCRF-CEM leukemia
[46] = test system: EKVX NSCLC
[47] = test system: KM12 colon
[48] = test system: BT-549 breast
[49] = test system: T-47D breast
[50] = test system: RPMI-8226 leukemia
[51] = test system: IGROV1 ovarian
[52] = test system: MOLT-4 leukemia
[53] = test system: MALME-3M melanoma
[54] = test system: OVCAR-4 ovarian
[55] = test system: A549 NSCLC
[56] = test system: 786-0 renal
[57] = test system: U251 CNS
[58] = test system: TK-10 renal
[59] = test system: MDA-MB-231 breast

Measured: TGI

CCOc1cc(NC(C)=O)ccc1C(=O)NN1C(=O)/C(=C/c2ccco2)N=C1c1ccccc1
not listed: [57] | [58] | [59]
> 100 µM: all other assays above

O=C(Nc1ccn(C2CC(O)C(CO)O2)c(=O)n1)c1ccccc1 (stereo unspecified)
not listed: [16] | [26] | [36] | [39] | [41] | [53]
> 100 µM: all other assays above

CC(C)=CCC[C@@H](C)C1=C(O)C(c2c(I)c(=O)n(C)c(=O)n2C)=C(C)C(=O)C1=O
not listed: [8] | [9] | [16] | [24] | [36] | [57] | [59]
> 100 µM: all other assays above
